The target in the first test is Adenosine A2A receptor (Homo sapiens, UniProt P29274). The experiment in a line: Adenosine A2A receptor competitive binding assay (Tag-lite HTRF). Particulars: Tag-lite adenosine A2A receptor ligand binding, 2 h room temperature; values separated by / are repeat determinations. How it is done: Adenosine A2A Receptor Competitive Binding Assay
Chain of Adenosine A2A receptor (P29274 whole entry): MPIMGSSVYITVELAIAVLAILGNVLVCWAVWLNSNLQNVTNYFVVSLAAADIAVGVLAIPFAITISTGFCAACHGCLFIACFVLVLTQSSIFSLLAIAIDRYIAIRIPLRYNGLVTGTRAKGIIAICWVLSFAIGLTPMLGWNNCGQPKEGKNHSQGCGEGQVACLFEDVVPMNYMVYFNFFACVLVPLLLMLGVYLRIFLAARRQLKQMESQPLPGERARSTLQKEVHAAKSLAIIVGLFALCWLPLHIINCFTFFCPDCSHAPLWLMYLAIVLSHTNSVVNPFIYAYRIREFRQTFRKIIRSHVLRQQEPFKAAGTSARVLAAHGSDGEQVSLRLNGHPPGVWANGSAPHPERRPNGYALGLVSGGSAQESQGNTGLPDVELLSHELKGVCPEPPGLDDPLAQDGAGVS
The Tag-lite adenosine A2A receptor ligand binding assay is a homogeneous alternative to radioligand binding assay and developed by Cisbio (Bedford, Mass.). We carried out this assay following Cisbio's instructions with minor modification. Pre-transfected, fluorescent donor-labelled cells (Cisbio Cat#: C1TT1A2A, 200 testes) was stored at −80° C. and thawed right before use. Cells were washed once with 5 ml TLB and gently resuspended in 2 ml TLB. 4 μl suspended cells was dispensed into each well of white low-volume 384-well plate (Greiner Bio-One). Serial dilutions of compounds were prepared in Tag-lite buffer (TLB, Cisbio Cat #: LABMED) to a DMSO concentration of 0.6%. After adding 4 μl of compound dilutions to each well, 4 μl60 nM Adenosine A2A receptor red antagonist fluorescent ligand (Cisbio Cat #: L0058RED) was dispensed to each well. The 384-well assay plate was centrifuged briefly and incubated at room temperature for 2 h. HTRF signals were measured using CIARIOstar plate reader (BMG Labtech).
The term IC50 denotes the concentration at which inhibition is half-maximal. A lower IC50 goes with greater potency in that assay. `Cc1cc(-c2c(OCC(=O)NCCN(C)C)nc(N)nc2-c2ccc(F)cc2)cc(C(F)F)n1` [Example 43, 2-((2-amino-5-(2-(difluoromethyl)-6-methylpyridin-4-yl)-6-(4-fluorophenyl)pyrimidin-4-yl)oxy)-N-(2-(dimethylamino)ethyl)acetamide] displayed an IC50 of 266 nM. This lies in the sub-micromolar range. In turn, `Cc1cc(-c2c(OCC(=O)NC3CCN(C)CC3)nc(N)nc2-c2ccc(F)cc2)cc(C(F)F)n1` [Example 44, 2-((2-amino-5-(2-(difluoromethyl)-6-methylpyridin-4-yl)-6-(4-fluorophenyl)pyrimidin-4-yl)oxy)-N-(1-methylpiperidin-4-yl)acetamide] gave an IC50 of 1210 nM. This IC50 lies about 4.5-fold higher than the previous one. As to `Cc1cc(-c2c(Oc3ccccc3)nc(N)nc2-c2ccc(F)cc2)cc(C(F)F)n1` [Example 47, 5-(2-(difluoromethyl)-6-methylpyridin-4-yl)-4-(4-fluorophenyl)-6-phenoxypyrimidin-2-amine], the IC50 was found to be 21.3 nM. The compound `Cc1cc(-c2c(OCCN3CCN(S(C)(=O)=O)CC3)nc(N)nc2-c2ccc(F)cc2)cc(C(F)F)n1` [Example 49, 5-(2-(difluoromethyl)-6-methylpyridin-4-yl)-4-(4-fluorophenyl)-6-(2-(4-(methylsulfonyl)piperazin-1-yl)ethoxy)pyrimidin-2-amine] yielded an IC50 of 13.9 nM. In turn, `Cc1cc(-c2c(OCC(=O)NCCCS(C)(=O)=O)nc(N)nc2-c2ccc(F)cc2)cc(C(F)F)n1` [Example 50, 2-((2-amino-5-(2-(difluoromethyl)-6-methylpyridin-4-yl)-6-(4-fluorophenyl)pyrimidin-4-yl)oxy)-N-(3-(methylsulfonyl)propyl)acetamide] returned an IC50 of 535 nM. Regarding `Cc1cc(-c2c(OCCc3ccc(N4CCN(S(C)(=O)=O)CC4)cc3)nc(N)nc2-c2ccc(F)cc2)cc(C(F)F)n1` [Example 58, 5-(2-(difluoromethyl)-6-methylpyridin-4-yl)-4-(4-fluorophenyl)-6-(4-(4-(methylsulfonyl)piperazin-1-yl)phenethoxy)pyrimidin-2-amine], the IC50 amounted to 28 nM. Against the preceding compound, the IC50 is about 19-fold lower. `Cc1cc(-c2c(OCCc3ccc(N4CCN(C5COC5)CC4)cc3)nc(N)nc2-c2ccc(F)cc2)cc(C(F)F)n1` [Example 64, 5-[2-(difluoromethyl)-6-methylpyridin-4-yl]-4-(4-fluorophenyl)-6-(2-[4-[4-(oxetan-3-yl)piperazin-1-yl]phenyl]ethoxy)pyrimidin-2-amine] registered an IC50 of 31 nM. In the case of `COC(=O)Nc1ccc(CCOc2nc(N)nc(-c3ccc(F)cc3)c2-c2cc(C)nc(C(F)F)c2)cc1` [Example 72, Methyl(4-(2-((2-amino-5-(2-(difluoromethyl)-6-methylpyridin-4-yl)-6-(4-fluorophenyl)pyrimidin-4-yl)oxy)ethyl)phenyl)carbamate], the IC50 came to 41 nM.

`Cc1cc(-c2c(OCC(O)C(C)(C)O)nc(N)nc2-c2ccc(F)cc2)cc(C(F)F)n1` (stereo not drawn) [Example 91, 1-((2-amino-5-(2-(difluoromethyl)-6-methylpyridin-4-yl)-6-(4-fluorophenyl)pyrimidin-4-yl)oxy)-3-methylbutane-2,3-diol]: the IC50 was > 1000 nM.

For `Cc1cc(-c2c(OCCc3ccc(C#N)cc3)nc(N)nc2-c2ccc(F)cc2)cc(C(F)F)n1` [Example 93, 4-(2-((2-amino-5-(2-(difluoromethyl)-6-methylpyridin-4-yl)-6-(4-fluorophenyl)pyrimidin-4-yl)oxy)ethyl)benzonitrile], the IC50 stood at 133 nM.

As to `Cc1cc(-c2c(OCC3CCN(S(C)(=O)=O)CC3)nc(N)nc2-c2ccc(F)cc2)cc(C(F)F)n1` [Example 96, 5-(2-(difluoromethyl)-6-methylpyridin-4-yl)-4-(4-fluorophenyl)-6-((1-(methylsulfonyl)piperidin-4-yl)methoxy)pyrimidin-2-amine], the IC50 was 61 nM. Against the preceding compound, the IC50 is about 2.2-fold lower. Still for that read-out and setting: next, `Cc1cc(-c2c(C(=O)NC3CCCc4cccnc43)nc(N)nc2-c2ccc(F)cc2)cc(C(F)F)n1` (stereo not drawn) [Example 100, 2-amino-5-(2-(difluoromethyl)-6-methylpyridin-4-yl)-6-(4-fluorophenyl)-N-(5,6,7,8-tetrahydroquinolin-8-yl)pyrimidine-4-carboxamide]: 66 nM.

As for `Cc1cc(-c2c(OCC(=O)N(C)C3COC3)nc(N)nc2-c2ccc(F)cc2)cc(C(F)F)n1` [Example 101, 2-((2-amino-5-(2-(difluoromethyl)-6-methylpyridin-4-yl)-6-(4-fluorophenyl)pyrimidin-4-yl)oxy)-N-methyl-N-(oxetan-3-yl)acetamide], the concentration for half-maximal inhibition (IC50) worked out at 70 nM. This IC50 and that of the compound before are within 1.5-fold of each other. Consider `Cc1cc(-c2c(OCC3(O)CCOCC3)nc(N)nc2-c2ccc(F)cc2)cc(C(F)F)n1` [Example 104, 4-(((2-amino-5-(2-(difluoromethyl)-6-methylpyridin-4-yl)-6-(4-fluorophenyl)pyrimidin-4-yl)oxy)methyl)tetrahydro-2H-pyran-4-ol], for which the IC50 is > 1000 nM. As for `Cc1cc(-c2c(OCC(=O)Nc3ccccn3)nc(N)nc2-c2ccc(F)cc2)cc(C(F)F)n1` [Example 107, 2-((2-amino-5-(2-(difluoromethyl)-6-methylpyridin-4-yl)-6-(4-fluorophenyl)pyrimidin-4-yl)oxy)-N-(pyridin-2-yl)acetamide], the IC50 was found to be 44 nM.

`Cc1cc(-c2c(C(=O)NCc3cccc(C(C)C)n3)nc(N)nc2-c2ccc(F)cc2)cc(C(F)F)n1` [Example 108, 2-amino-5-(2-(difluoromethyl)-6-methylpyridin-4-yl)-6-(4-fluorophenyl)-N-((6-isopropylpyridin-2-yl)methyl)pyrimidine-4-carboxamide] had an IC50 of 222 nM. `Cc1cc(-c2c(C(=O)NCc3cccc(C4CC4)n3)nc(N)nc2-c2ccc(F)cc2)cc(C(F)F)n1` [Example 109] returned an IC50 of 205 nM. Still for that read-out and setting: next, `Cc1cc(-c2c(C(=O)NCc3cccc(C(C)(C)O)n3)nc(N)nc2-c2ccc(F)cc2)cc(C(F)F)n1` [Example 110, 2-amino-5-(2-(difluoromethyl)-6-methylpyridin-4-yl)-6-(4-fluorophenyl)-N-((6-(2-hydroxypropan-2-yl)pyridin-2-yl)methyl)pyrimidine-4-carboxamide]: 250 nM; `Cc1cc(-c2c(OCc3nccn3C3CCOCC3)nc(N)nc2-c2ccc(F)cc2)cc(C(F)F)n1` [Example 172, 5-(2-(difluoromethyl)-6-methylpyridin-4-yl)-4-(4-fluorophenyl)-6-((1-(tetrahydro-2H-pyran-4-yl)-1H-imidazol-2-yl)methoxy)pyrimidin-2-amine]: 165 nM.

The test is the same for the next values; noted with them: Tag-lite adenosine A2A receptor ligand binding, HTRF.
The compound `CCc1nnn(C)c1COc1nc(N)nc(-c2ccc(F)cc2)c1-c1cc(C)nc(C(F)F)c1` [Example 200, 5-(2-(difluoromethyl)-6-methylpyridin-4-yl)-4-((4-ethyl-1-methyl-1H-1,2,3-triazol-5-yl)methoxy)-6-(4-fluorophenyl)pyrimidin-2-amine] yielded an IC50 of 13 nM. `Cc1cc(-c2c(OCc3nccn3CCC(C)(C)C(=O)O)nc(N)nc2-c2ccc(F)cc2)cc(C(F)F)n1` [Example 216, 4-(2-(((2-amino-5-(2-(dilfluoromethyl)-6-methylpyridin-4-yl)-6-(4-fluorophenyl)pyrimidin-4-yl)oxy)methyl)-1H-imidazol-1-yl)-2,2-dimethylbutanoic acid]: the IC50 is 306 nM.

For the origin of these results see patent US20210355104A1, “ADENOSINE RECEPTOR BINDING COMPOUNDS” (Nikang Therapeuticsm Inc., priority 2018, published 2021).
